Test results as given in a melting point compilation (Tetko et al.; mined from patent text by program, amines drawn as free bases though some values may be those of a salt).

| SMILES | melting point [°C] |
| --- | --- |
| CCOC(=O)c1cc(=O)c2c(C)c(Cl)c(C)cc2o1 | 114 to 116 |
| CC(=O)Nc1ccc2c(c1)NC(=O)CC2(C)C | 273 to 278 |
| O=[N+]([O-])c1ccc(Oc2cccc3c(Oc4ccc([N+](=O)[O-])c([N+](=O)[O-])c4)cccc23)cc1[N+](=O)[O-] | 224 to 228 |
| CC=CCN(CCC12CC3CC(CC(C3)C1)C2)C(=O)NCCCc1ccncc1 | 89.5 to 93.5 |
| NC(=O)c1cc(NCc2cccc(F)c2)c([N+](=O)[O-])cc1[N+](=O)[O-] | 175 to 177 |
| COc1cc(-c2nc(-n3cncn3)c3c(C)c(C#N)sc3n2)cc(OC)c1OC | 236 to 240 |
| COc1ccc(C2CCN(C(=O)C(N)=O)CC2)cc1C=C1CCCC1 | 116 to 117 |
| COc1ccc2c(C(=O)O)cc3cc(OC)c(OC)cc3c2c1 | 241 to 243 |
| O=C1NCN2c3ccccc3Sc3cccc1c32 | 187 to 192 |
| CN(C)n1cc(C(=O)O)c(=O)c2cc(F)c(Cl)cc21 | 255 to 256 |
| N#Cc1cc([N+](=O)[O-])ccc1Sc1ccccc1 | 82 to 84 |
| O=c1ncc(Br)cn1CSc1ccc(F)cc1 | 206 |
| C=CCSC(=NC(=O)OC)NC(=O)Nc1ccc(C)cc1 | 103 to 105 |
| C=C(C)COc1cc(C)c(NC(C)=O)cc1C | 128 to 132 |
| O=C(NC1N=C(c2ccccc2)c2oc3ccccc3c2NC1=O)OCc1ccccc1 (stereo not given) | > 260 |
| N#CCCOC(=O)C=Cc1ccccc1 | 62 to 65 |
| CCc1cccc2c3c([nH]c12)C(CC)(CC(=O)OC)OCC3 (stereo not given) | 128 to 130 |
| Nc1cc(O)cc(O)c1 | 150 |
| CSCC[C@@H](NC(=O)OC(C)(C)C)C(=O)Oc1c(Cl)c(Cl)c(Cl)c(Cl)c1Cl | 133 to 134 |
| CCCOC1=CC(=O)C(C(=O)OCC)C(c2ccc(C)cc2)C1 (stereo not given) | 106 to 107 |
| CC(C)N(CCOc1ccc(NC(=O)c2c[nH]c3c2C(=O)CCC3)cc1)C(C)C | 140 to 141 |
| O=C(NCCBr)C1=C(C(=O)Nc2ccc(Cl)cc2F)CCCC1 | 165 to 166 |
| Fc1ccc(-c2cn([C@H]3CN4CCC3CC4)nn2)cn1 | 147 |
| Nc1ncc(C#Cc2ccc(Cl)cc2)c(N2CCOCC2)n1 | 193 to 194 |
| Cn1ccc(-c2cc3nccnc3[nH]2)c1 | 211 to 213 |

Results, then the compound that gave them:

| melting point [°C] | SMILES |
| --- | --- |
| 169 to 172 | COC(=O)[C@H]1CC[C@@H](n2nc(-c3c(-c4ccccc4)nn4ccccc34)ccc2=O)[C@H](O)C1 (relative stereo) |
| 76 | CCOC(=O)c1ccc(N(CC)CCc2ccccc2OCc2ccccc2)cc1 |
| 149 to 150 | CN(c1cccc2cc(C3=NCC(CC(N)=O)S3)[nH]c12)S(=O)(=O)c1ccccn1 (stereo not given) |
| 180 to 182 | Cc1cc(C)c(COc2cccnc2NC(=S)Nc2ccc(Cl)cc2)c(C)c1 |
| 270 | CC(=O)Nc1nc2ccc(S(=O)(=O)n3c(CCCC(=O)O)cc4nc(Cl)ccc43)cc2s1 |
| 292 to 298 | CCCCS(=O)(=O)NC(=O)c1ccc2nc(C)n(Cc3ccc(-c4ccccn4)cc3)c2c1 |
| 129 to 131 | CCCNC(=O)c1nc(C)ccc1C(=O)Nc1c(Cl)ccc(C)c1C#N |
| 176 | O=C(Nc1ccc2ccc(Oc3ccccc3)nc2n1)c1cccs1 |
| 245 | Cc1ccnc(N2CCN(C3Sc4ccccc4NC3=O)CC2)c1 (stereo not given) |
| 260 to 261 | O=C(O)CNc1cc(C(=O)O)nc2ccccc12 |
| 151 to 152 | CCCCC(Cc1ccc(OCCCNC(=O)c2ccc(-c3ccccn3)cc2)cc1)C(=O)O (stereo not given) |
| 198 | N#Cc1ccc(C2NC(=O)NC2=O)c(SCCc2ccccc2)c1 (stereo not given) |
| 229 to 232 | NS(=O)(=O)c1cc2cc3c(cc2n1S(=O)(=O)c1ccccc1)OCO3 |
| 175 to 180 | N#CCc1cc(=O)c(OCc2ccccc2)cn1Cc1ccccc1 |
| 138 to 142 | CCCCc1nc2c(N)nc3ccccc3c2n1CCCCNS(=O)(=O)c1cccs1 |
| 187 to 188 | CC1(C)CCC(C)(C)c2cc(Sc3ccc(C(=O)O)cc3)ccc21 |
| 211 to 214 | On1c(C(F)(F)F)nc2c(OCc3ccccc3)cc(Br)cc21 |
| 171 to 172 | CC(C)Cn1c(C(=O)O)c(-c2cccs2)c2cc(OCc3ccccc3)ccc2c1=O |
| 246 to 248 | COc1ccc(-c2[nH]c3ccccc3c(=O)c2Cc2ccncc2)cc1 |
| 73 to 76 | CC(C)(C)OC(=O)N[C@@H](CCC(=O)OCc1ccccc1)C(=O)OCc1ccccc1 |
| 186 to 187 | C[C@@H](NC(=O)[C@H](Cc1ccc(OC(C)(C)C)cc1)NC(=O)OC(C)(C)C)C(=O)O |
| 171 to 172 | CC(C)(C)c1cc(CCc2ccccc2NC(=O)N2CCN(C(=O)c3cccnc3)CC2)cc(C(C)(C)C)c1O |
| 195 | CC(=O)Oc1c(C(C)(C)C)cc2c(c1C(C)(C)C)C=CS2(=O)=O |
| 120 to 132 | CCN1CCc2cc(Nc3ncc(Cl)c(Nc4ccccc4C(=O)NC)n3)c(OC)cc2CC1=O |
| 62 to 65 | COc1ccc(CCCc2c[nH]c(C(=O)N3CCC[C@@H]3C(=O)N[C@H]3CC(=O)O[C@@H]3OCc3ccccc3)n2)cc1 |
